How the values were obtained:
[1] = system: hSTING-R232 in THP1-Dual KI-hSTING-R232 Cells; experiment: STING cellular assay in THP1-Dual KI-hSTING-R232 cells (Lucia luciferase IRF reporter); format: cell-based; details: Homo sapiens, 24 h incubation, QUANTI-Luc readout, 1 nM-10 μM
Text: (§1) STING Cellular Assay in THP1-Dual™ Cells
(§2) THP1-Dual™ cells were derived from the human THP-1 monocyte cell line by stable integration of two inducible reporter constructs. THP1-Dual™ cells feature the Lucia luciferase gene, a new secreted luciferase reporter gene, under the control of an ISG54 (interferon-stimulated gene) minimal promoter in conjunction with five interferon (IFN)-stimulated response elements. THP1-Dual™ cells also express a secreted embryonic alkaline phosphatase (SEAP) reporter gene driven by an IFN-β minimal promoter fused to five copies of the NF-κB consensus transcriptional response element and three copies of the c-Rel binding site. As a result, THP1-Dual™ cells allow the simultaneous study of the NF-κB pathway, by monitoring the activity of SEAP, and the interferon regulatory factor (IRF) pathway, by assessing the activity of Lucia luciferase. Both reporter proteins are readily measurable in the cell culture supernatant when using QUANTI-Blue™, a SEAP detection reagent, and QUANTI-Luc™, a Lucia luciferase detection reagent.
(§3) Distinct variants of human STING (hSTING) that affect CDN recognition and signal transduction have been identified: • R232 (R71-G230-R232-R293): the most prevalent in the human population (˜60%). Referred as the “wild-type” or 232R-RGR allele2. • HAQ (H71-A230-R232-Q293): contains three non-synonymous single nucleotide substitutions; R71H, G230A and R293Q. This allele, found in ˜20% of the population, is less sensitive to CDNs than the “wild-type” allele2.
(§4) Growth Medium: RPMI 1640, 2 mM L-glutamine, 25 mM HEPES, 10% heat-inactivated fetal bovine serum (30 min at 56° C.), 100 μg/mL Normocin™, Pen-Strep (100 U/mL-100 μg/mL)
(§5) 1. After cells have recovered (after at least one passage), maintain and subculture the cells in growth medium. (To maintain selection pressure, add 10 μg/mL of blasticidin and 100 μg/mL of Zeocin™ to the growth medium every other passage.) 2. Pass the cells every 3 days by inoculating 7×10^5 cells/ml.
(§6) Experimental Procedure • 1. Add 180 μL of cell suspension (˜100,000 cells) per well of a flat-bottom 96-well plate (costar 3599). • 2. Then compounds were added with serial dilutions over 10 points with a 1 nM-10 μM final concentration range in 0.10% DMSO/growth medium. • 3. Incubate the plate for 24 h at 37° C., 5% CO2. • 4. Set the BMG PHERAstar FSX instrument with the following parameters: 50 μL of injection, end-point measurement with a 4 second start time and 0.1 second reading time. • 5. Pipet 10 μL of THP1-Dual™ cell culture medium per well into a 96-well white opaque plate (Corning 3903). • 6. Add 50 μL of QUANTI-Luc assay solution to each well and gently tap the plate several times to mix. Proceed immediately with the measurement.

STING in THP1-Dual Cells = experiment: STING cellular assay in THP1-Dual cells (Lucia luciferase IRF reporter); format: cell-based; details: Homo sapiens, 24 h incubation, QUANTI-Luc readout, 1 nM-10 μM
Text: as §1, §2, §3, §4, §5, §6

Row | Compound | EC50 [1] [nM] | EC50 (STING in THP1-Dual Cells) [nM]
1 | CCn1nc(C)cc1-c1nc(Cl)c2c3cc(C(N)=O)cc(OC)c3n(C/C=C/Cn3c4nc(-c5cc(C)nn5CC)nc(Cl)c4c4cc(C#N)cc(OCCCN5CCOCC5)c43)c2n1 [Example 1, (E)-4-chloro-9-(4-(4-chloro-6-cyano-2-(1-ethyl-3-methyl-1H-pyrazol-5-yl)-8-(3-morpholinopropoxy)-9H-pyrimido[4,5-b]indol-9-yl)but-2-en-1-yl)-2-(1-ethyl-3-methyl-1H-pyrazol-5-yl)-8-methoxy-9H-pyrimido[4,5-b]indole-6-carboxamide] | > 10000 | > 10000
2 | CCn1nc(C)cc1-c1nc(O)c2c3cc(C(N)=O)cc(OC)c3n(C/C=C/Cn3c4nc(-c5cc(C)nn5CC)nc(O)c4c4cc(C(N)=O)cc(OCCCN5CCOCC5)c43)c2n1 [Example 2, (E)-9-(4-(6-carbamoyl-2-(1-ethyl-3-methyl-1H-pyrazol-5-yl)-4-hydroxy-8-(3-morpholinopropoxy)-9H-pyrimido[4,5-b]indol-9-yl)but-2-en-1-yl)-2-(1-ethyl-3-methyl-1H-pyrazol-5-yl)-4-hydroxy-8-methoxy-9H-pyrimido[4,5-b]indole-6-carboxamide; trifluoroacetic acid] | 3230 | > 10000
3 | CCn1nc(C)cc1-c1nc(Cl)c2c3cc(C(N)=O)cc(OC)c3n(C/C=C/Cn3c4nc(-c5cc(C)nn5CC)nc(Cl)c4c4cc(C(N)=O)cc(OCCCN5CCOCC5)c43)c2n1 [Example 3, (E)-9-(4-(6-carbamoyl-4-chloro-2-(1-ethyl-3-methyl-1H-pyrazol-5-yl)-8-(3-morpholinopropoxy)-9H-pyrimido[4,5-b]indol-9-yl)but-2-en-1-yl)-4-chloro-2-(1-ethyl-3-methyl-1H-pyrazol-5-yl)-8-methoxy-9H-pyrimido[4,5-b]indole-6-carboxamide; trifluoroacetic acid] | 3.7 | 182
4 | CCn1nc(C)cc1-c1ncc2c3cc(C(N)=O)cc(OC)c3n(C/C=C/Cn3c4nc(-c5cc(C)nn5CC)ncc4c4cc(C(N)=O)cc(OCCCN5CCOCC5)c43)c2n1 [Example 4, (E)-9-(4-(6-carbamoyl-2-(1-ethyl-3-methyl-1H-pyrazol-5-yl)-8-(3-morpholinopropoxy)-9H-pyrimido[4,5-b]indol-9-yl)but-2-en-1-yl)-2-(1-ethyl-3-methyl-1H-pyrazol-5-yl)-8-methoxy-9H-pyrimido[4,5-b]indole-6-carboxamide; formic acid] | 1.5 | 3.5
